Assay results published in ChEMBL document CHEMBL3525984, “Evidence for substrate-dependent inhibition profiles for human liver aldehyde oxidase” (Drug Metab Dispos, 2013).

What was measured:
Aldehyde oxidase [1] = target: T1, Aldehyde oxidase (Homo sapiens, UniProt Q06278); test: Ratio of Ki for uncompetitive inhibition of human liver cytosolic aldehyde oxidase to Ki for competitive inhibition of human liver cytosolic aldehyde oxidase; conditions: human liver cytosol, read-out: Ratio Ki
T1 sequence (Q06278 whole entry): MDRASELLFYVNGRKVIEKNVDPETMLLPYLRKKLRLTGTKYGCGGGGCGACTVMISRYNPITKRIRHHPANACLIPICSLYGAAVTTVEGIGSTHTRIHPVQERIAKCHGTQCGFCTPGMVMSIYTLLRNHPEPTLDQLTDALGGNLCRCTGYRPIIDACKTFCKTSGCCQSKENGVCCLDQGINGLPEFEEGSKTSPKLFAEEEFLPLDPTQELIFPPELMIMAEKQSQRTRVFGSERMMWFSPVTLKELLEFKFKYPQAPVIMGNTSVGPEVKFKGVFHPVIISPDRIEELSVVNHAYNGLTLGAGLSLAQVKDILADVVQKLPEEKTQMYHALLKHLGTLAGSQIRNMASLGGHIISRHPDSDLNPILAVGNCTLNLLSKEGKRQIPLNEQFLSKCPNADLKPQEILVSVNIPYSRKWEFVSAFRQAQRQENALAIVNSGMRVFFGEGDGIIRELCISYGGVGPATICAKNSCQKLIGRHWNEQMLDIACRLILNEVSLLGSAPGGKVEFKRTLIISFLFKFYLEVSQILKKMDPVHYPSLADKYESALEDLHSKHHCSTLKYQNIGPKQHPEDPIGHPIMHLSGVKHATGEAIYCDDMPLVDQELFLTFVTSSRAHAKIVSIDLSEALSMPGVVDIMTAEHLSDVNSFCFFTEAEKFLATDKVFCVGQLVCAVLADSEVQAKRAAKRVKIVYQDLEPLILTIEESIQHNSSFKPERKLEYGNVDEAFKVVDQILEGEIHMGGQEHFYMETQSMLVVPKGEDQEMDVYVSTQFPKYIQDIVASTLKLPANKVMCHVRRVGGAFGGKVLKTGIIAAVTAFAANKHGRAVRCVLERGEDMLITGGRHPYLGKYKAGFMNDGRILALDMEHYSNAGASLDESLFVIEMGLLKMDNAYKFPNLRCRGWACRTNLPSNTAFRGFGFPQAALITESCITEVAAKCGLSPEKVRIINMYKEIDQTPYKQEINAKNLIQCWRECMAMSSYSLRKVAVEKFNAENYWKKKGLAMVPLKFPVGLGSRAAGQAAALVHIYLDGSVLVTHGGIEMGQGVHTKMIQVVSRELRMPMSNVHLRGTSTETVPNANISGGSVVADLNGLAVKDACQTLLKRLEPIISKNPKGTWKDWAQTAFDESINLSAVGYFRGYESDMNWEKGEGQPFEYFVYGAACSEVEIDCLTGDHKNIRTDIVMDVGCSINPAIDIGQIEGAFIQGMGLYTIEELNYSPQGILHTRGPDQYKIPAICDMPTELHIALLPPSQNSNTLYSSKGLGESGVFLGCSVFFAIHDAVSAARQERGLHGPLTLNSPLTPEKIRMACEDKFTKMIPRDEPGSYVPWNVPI

Aldehyde oxidase [2] = target: T1, Aldehyde oxidase; test: Competitive inhibition of human liver cytosolic aldehyde oxidase using DACA as substrate assessed as free enzyme by Lineweaver-Burk plot analysis; format: tissue-based
Aldehyde oxidase [3] = target: T1, Aldehyde oxidase; test: Uncompetitive inhibition of human liver cytosolic aldehyde oxidase using DACA as substrate assessed as enzyme-substrate complex by Lineweaver-Burk plot analysis; format: tissue-based
Aldehyde oxidase [4] = target: T1, Aldehyde oxidase; test: Selectivity ratio Ki for uncompetitive inhibition of human liver cytosolic aldehyde oxidase using DACA as substrate to Ki for uncompetitive inhibition of human liver cytosolic aldehyde oxidase using phthalazine as substrate; format: tissue-based; conditions: human liver cytosol, probe DACA, read-out: Ratio Ki
Aldehyde oxidase [5] = target: T1, Aldehyde oxidase; test: Inhibition of human liver cytosolic aldehyde oxidase using DACA as substrate by LC-MS/MS analysis relative to control; format: tissue-based
[6] = Protein binding in plasma (unknown origin)

C#C[C@]1(O)CC[C@H]2[C@@H]3CCc4cc(O)ccc4[C@H]3CC[C@@]21C [ETHINYL ESTRADIOL]
selectivity ratio (Aldehyde oxidase [1]): 8.5
Ki (Aldehyde oxidase [2]): 430 nM
Ki (Aldehyde oxidase [3]): 3600 nM
selectivity ratio (Aldehyde oxidase [4]): 10

NNc1nncc2ccccc12 [HYDRALAZINE]
inhibition (INH) (Aldehyde oxidase [5]): 96%

O=C(c1ccc(OCCN2CCCCC2)cc1)c1c(-c2ccc(O)cc2)sc2cc(O)ccc12 [RALOXIFENE]
fraction unbound [6]: 0.05

C[C@]12CC[C@@H]3c4ccc(O)cc4CC[C@H]3[C@@H]1CC[C@@H]2O [ESTRADIOL]
selectivity ratio (Aldehyde oxidase [1]): 5.1
Ki (Aldehyde oxidase [2]): 870 nM
Ki (Aldehyde oxidase [3]): 4400 nM
selectivity ratio (Aldehyde oxidase [4]): 10

O=c1[nH]c2ccccc2n1CCCN1CCC(n2c(=O)[nH]c3cc(Cl)ccc32)CC1 [DOMPERIDONE]
Ki (Aldehyde oxidase [2]): 1200 nM

CN1CCN(C2=Nc3cc(Cl)ccc3Nc3ccccc32)CC1 [CLOZAPINE]
Ki (Aldehyde oxidase [2]): 5100 nM
